Assay results taken from US10294202B2, “Pyrrolidinones as herbicides” (FMC Corporation, priority 2013, dated 2019).

How the values were obtained:
nutsedge, yellow = assay: Test C pre-/postemergence herbicide test; type: in vivo, Cyperus esculentus; details: Postemergence
Procedure, shortened: (§1)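 Greenhouse plants scored visually against untreated controls 13–15 days after treatment, 0 = no effect, 100 = complete control. Test chemicals in a non-phytotoxic solvent with surfactant were applied either to soil (loam/sand) at planting or to foliage of 1- to 4-leaf plants, 2–18 cm tall.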

ryegrass, Italian = assay: Test C pre-/postemergence herbicide test; type: in vivo, Lolium multiflorum; details: Postemergence
Procedure, shortened: as §1

wheat = assay: Test A pre-/postemergence herbicide test; type: in vivo, Triticum aestivum
Procedure, shortened: (§2)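 Visual 0–100 ratings (100 = complete control) made about 10 days after treatment, greenhouse-held plants compared with untreated controls. Treatments: postemergence sprays on one- to two-leaf plants (2–10 cm tall) and preemergence directed soil sprays after planting in loam–sand, chemicals formulated in non-phytotoxic solvent containing surfactant.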

barnyardgrass = assay: Test A pre-/postemergence herbicide test; type: in vivo, Echinochloa crus-galli
Procedure, shortened: as §2

ducksalad = assay: Test B flooded paddy test; type: in vivo, Heteranthera limosa; details: 250 g ai/ha, Flood; scale of 0 to 100 where 0 is no effect and 100 is complete control
Procedure, shortened: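 2-leaf plants; flood 3 cm over soil; compound into paddy water; depth held. Greenhouse 13–15 d. Visual rating vs controls, 0 (no effect) to 100 (complete control); dash = not tested.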

wheat (winter wheat) = assay: Test C pre-/postemergence herbicide test; type: in vivo, Triticum aestivum; details: Postemergence
Procedure, shortened: as §1

blackgrass = assay: Test C pre-/postemergence herbicide test; type: in vivo, Alopecurus myosuroides; details: Postemergence
Procedure, shortened: as §1

pigweed = assay: Test A pre-/postemergence herbicide test; type: in vivo, Amaranthus retroflexus
Procedure, shortened: as §2

[1] = 31 g ai/ha, scale 0 (no effect) to 100 (complete control)
[2] = 62 g ai/ha, scale 0 to 100 (0 no effect, 100 complete control)
[3] = 125 g ai/ha, scale 0 to 100 (0 no effect, 100 complete control)
[4] = 250 g ai/ha, scale 0 to 100 (0 no effect, 100 complete control)
[5] = Postemergence, 125 g ai/ha, 0 to 100 scale, 0 no effect, 100 complete control
[6] = Postemergence, 500 g ai/ha, 0 to 100 scale (0 no effect, 100 complete control)
[7] = Preemergence, 125 g ai/ha, visual rating on 0 to 100 scale (0 no effect, 100 complete control)
[8] = preemergence, 500 g ai/ha, 0 to 100 scale

O=C1NCC(c2cc(F)c(F)cc2F)C1C(=O)Nc1cccc(F)c1F (centres unmarked) [Compound 50]
Plant response rating, Nutsedge, Yellow (nutsedge, yellow; [1]): 0
Plant response rating, Nutsedge, Yellow (nutsedge, yellow; [2]): 0
Plant response rating, Nutsedge, Yellow (nutsedge, yellow; [3]): 0
Plant response rating, Nutsedge, Yellow (nutsedge, yellow; [4]): 5
Plant response rating, Ryegrass, Italian (ryegrass, Italian; [1]): 0
Plant response rating, Ryegrass, Italian (ryegrass, Italian; [2]): 0
Plant response rating, Ryegrass, Italian (ryegrass, Italian; [3]): 0
Plant response rating, Ryegrass, Italian (ryegrass, Italian; [4]): 0
Plant response rating, Wheat (wheat; [5]): 0
Plant response rating, Wheat (wheat; [6]): 0
Wheat plant response rating (wheat; [7]): 0
Plant response rating, Wheat (wheat; [8]): 0
Plant response rating, Barnyardgrass (barnyardgrass; [5]): 80
Plant response rating, Barnyardgrass (barnyardgrass; [6]): 80
Barnyardgrass plant response rating (barnyardgrass; [7]): 30
Plant response rating, Barnyardgrass (barnyardgrass; preemergence, 500 g ai/ha, 0 to 100 scale (0 no effect, 100 complete control)): 90
Plant response rating, Ducksalad (ducksalad): 90
Plant response rating, Wheat (wheat (winter wheat); [1]): 0
Plant response rating, Wheat (wheat (winter wheat); [2]): 0
Plant response rating, Wheat (wheat (winter wheat); [3]): 0
Plant response rating, Wheat (wheat (winter wheat); [4]): 0
Plant response rating, Blackgrass (blackgrass; [1]): 0
Plant response rating, Blackgrass (blackgrass; [2]): 0
Plant response rating, Blackgrass (blackgrass; [3]): 0
Plant response rating, Blackgrass (blackgrass; [4]): 0
Plant response rating, Pigweed (pigweed; [5]): 0
Plant response rating, Pigweed (pigweed; [6]): 0
Pigweed plant response rating (pigweed; [7]): 0
Plant response rating, Pigweed (pigweed; [8]): 0
